Assay results reported in patent US7785828B1 (priority 2003, dated 2010).
Where two headings read alike, the source gives them in different places.

Tested on: Fusarium graminearum
Format: cell-based
Set-up: key: + indicates a 1- to 5-fold improvement in activity compared to a reference defensin protein; ++ indicates a >5- to 10-fold improvement; +++ indicates a >10-fold improvement; “0” indicates no activity detected
[1] = Table 2B (Dm-AMP1 based libraries), improvement compared to reference defensin protein (Rs-AFP2 for Table 2B [sic])
[2] = Table 2C (mixed diversity library), improvement compared to reference defensin protein DmAMP

## NLCERASKTWTGNCGNTKHCDNQCKSWEGAKHGACHVRSGKHKCFCYFNC (Defensin like) [L5-37]
[1]
  Activity (1): antifungal activity of the NP against Fusarium graminearium: ++ (++ indicates a >5- to 10-fold improvement)

## --QKLCERASKTWTGHCGNTKHCDKQCKNWEKAKHGACHVRNGKWKCFCYFNC (Defensin like) [L7-34]
[2]
  Activity (1): antifungal activity of the NP against Fusarium graminearium: + (+ indicates a 1- to 5-fold improvement in activity compared to a reference defensin protein)

## DGVKLCERPSQTWTGNCGNTKHCDKQCKSWEGAKHGACHKRNGKWKCFCYFNC (Defensin like) [L7-99]
[2]
  Activity (1): antifungal activity of the NP against Fusarium graminearium: + (+ indicates a 1- to 5-fold improvement in activity compared to a reference defensin protein)

## NLCERASKTWTGNCGNTKHCDTQCRNWEGAKHGACHVRNGKWKCFCYFNC (Defensin like) [L5-46]
[1]
  Activity (1): antifungal activity of the NP against Fusarium graminearium: + (+ indicates a 1- to 5-fold improvement in activity compared to a reference defensin protein)

## DGVKLCEKPSKTWSGHCGNTKHCDKQCKNWEKAKHGACHKRNGKWKCFCYFNC (Defensin like) [L7-113]
[2]
  Activity (1): antifungal activity of the NP against Fusarium graminearium: + (+ indicates a 1- to 5-fold improvement in activity compared to a reference defensin protein)

## NLCERASKTWTGNCGNTKHCDNQCKNWEGAKHGACHVRNGKWKCFCYFNC (Defensin like) [L6-03]
[1]
  Activity (1): antifungal activity of the NP against Fusarium graminearium: +++ (+++ indicates a >10-fold improvement)

## DGVKLCEKPSQTWTGHCGNTKHCDKQCKNWEGAKHGACHKRNGKWKCFCYFNC (Defensin like) [L7-178]
[2]
  Activity (1): antifungal activity of the NP against Fusarium graminearium: ++ (++ indicates a >5- to 10-fold improvement)

## NLCERASKTWTGNCGNTKHCDTQCRNWEGAKHGACHKRSGKWKCFCYFNC (Defensin like) [L6-33]
[1]
  Activity (1): antifungal activity of the NP against Fusarium graminearium: ++ (++ indicates a >5- to 10-fold improvement)

## NLCERASKTWTGNCGNTKHCDNQCRNWEGAKHGACHKRNGKWKCFCYFNC (Defensin like) [L9-12]
[1]
  Activity (1): antifungal activity of the NP against Fusarium graminearium: +++ (+++ indicates a >10-fold improvement)

## NLCERASKTWTGNCGNTKHCDNQCRNWEGAKHGACHVRNGKHKCFCYFNC (Defensin like) [L6-35]
[1]
  Activity (1): antifungal activity of the NP against Fusarium graminearium: ++ (++ indicates a >5- to 10-fold improvement)

## ---NLCERASKTWSGHCGNTKHCDNQCRNWEGAKHGACHKRNGKWKCFCYFNC (Defensin like) [L7-11]
[2]
  Activity (1): antifungal activity of the NP against Fusarium graminearium: ++ (++ indicates a >5- to 10-fold improvement)

## NLCERASKTWTGNCGNTKHCDNQCKNWEGAAHGACHKRSGKWKCFCYFNC (Defensin like) [L10-80]
[1]
  Activity (1): antifungal activity of the NP against Fusarium graminearium: ++ (++ indicates a >5- to 10-fold improvement)

## NLCERASKTWTGNCGNTKHCDTKCRSWESAKHGACHKRNGKWKCFCYFNC (Defensin like) [L3-46]
[1]
  Activity (1): antifungal activity of the NP against Fusarium graminearium: ++ (++ indicates a >5- to 10-fold improvement)

## DGVKLCERPSQTWTGHCGNTKHCDKQCRNWEGAAHGACHKRSGKWKCFCYFNC (Defensin like) [L7-83]
[2]
  Activity (1): antifungal activity of the NP against Fusarium graminearium: ++ (++ indicates a >5- to 10-fold improvement)

## DGVKLCERASKTWTGNCGNTKHCDNQCKSWEGAKHGACHVRNGKHKCFCYFNC (Defensin like) [L7-76]
[2]
  Activity (1): antifungal activity of the NP against Fusarium graminearium: ++ (++ indicates a >5- to 10-fold improvement)

## DGVKLCEKASQTWTGNCGNTKHCDNQCKNWEKAKHGACHKRSGKWKCFCYFNC (Defensin like) [L7-42]
[2]
  Activity (1): antifungal activity of the NP against Fusarium graminearium: + (+ indicates a 1- to 5-fold improvement in activity compared to a reference defensin protein)

## QKLCERPSGTWSGVCMNSNACKNQCIRLEGARHGSCNYVFPAHKCICYFPC (Defensin like) [L2-53]
  Activity (1): antifungal activity of the NP against Fusarium graminearium: 0

## DGVKLCERASQTWTGHCGNTKHCDKQCKSWEKAKHGACHVRNGKWKCFCYFNC (Defensin like) [L7-15]
[2]
  Activity (1): antifungal activity of the NP against Fusarium graminearium: ++ (++ indicates a >5- to 10-fold improvement)

## NLCERASKTWTGNCGNTKHCDNQCKNWEGAKHGACHVRSGKHKCFCYFNC (Defensin like) [L6-23]
[1]
  Activity (1): antifungal activity of the NP against Fusarium graminearium: ++ (++ indicates a >5- to 10-fold improvement)

## NLCERASKTWTGNCGNTKHCDTQCKIWEGAKHGACHKRSGKWKCFCYFNC (Defensin like) [L3-77]
[1]
  Activity (1): antifungal activity of the NP against Fusarium graminearium: ++ (++ indicates a >5- to 10-fold improvement)

## NLCERASKTWTGNCGNTKHCDTQCKNWESAKHGACHVRSGKHKCFCYFNC (Defensin like) [L3-28]
[1]
  Activity (1): antifungal activity of the NP against Fusarium graminearium: ++ (++ indicates a >5- to 10-fold improvement)

## DGVKLCERPSQTWSGNCGNTKHCDKQCRNWEKAKHGACHKRNGKWKCFCYFNC (Defensin like) [L7-123]
[2]
  Activity (1): antifungal activity of the NP against Fusarium graminearium: + (+ indicates a 1- to 5-fold improvement in activity compared to a reference defensin protein)

## DGVKLCERASQTWSGHCGNTKHCDKQCKNWEKAAHGACHVRSGKWKCFCYFNC (Defensin like) [L7-14]
[2]
  Activity (1): antifungal activity of the NP against Fusarium graminearium: ++ (++ indicates a >5- to 10-fold improvement)

## NLCEKASKTWTGNCGNTKHCDNQCKNWESAAHGACHKRNGKWKCFCYFNC (Defensin like) [L3-79]
[1]
  Activity (1): antifungal activity of the NP against Fusarium graminearium: ++ (++ indicates a >5- to 10-fold improvement)

## DGVKLCERASKTWTGHCGNTKHCDKQCKNWEKAAHGACHVRNGKWKCFCYFNC (DGVKLCERASKTWSGHCGNTKHCDKQCKNWEKAAHGACHVRNGKWKCFCYFSC; Defensin like) [L7-93]
[2]
  Activity (1): antifungal activity of the NP against Fusarium graminearium: +++ (+++ indicates a >10-fold improvement)

## --QKLCERPSQTWTGHCGNTKHCDKQCKNWEGAKHGACHVRNGKWKCFCYFNC (Defensin like) [L7-89]
[2]
  Activity (1): antifungal activity of the NP against Fusarium graminearium: + (+ indicates a 1- to 5-fold improvement in activity compared to a reference defensin protein)

## NLCERASKTWSSNCGNTKHCDTQCKNWEGAKHGACHVRNGKWKCFCYFNC (Defensin like) [L10-60]
[1]
  Activity (1): antifungal activity of the NP against Fusarium graminearium: ++ (++ indicates a >5- to 10-fold improvement)

## NLCERASKTWTGNCGNTKHCDNQCRNWESAAHGACHKRSGKWKCFCYFNC (Defensin like) [L3-98]
[1]
  Activity (1): antifungal activity of the NP against Fusarium graminearium: ++ (++ indicates a >5- to 10-fold improvement)

## NLCERASKTWTGNCGNTKHCDTQCKSWEGAKHGACHVRSGKHKCFCYFNC (Defensin like) [L5-36]
[1]
  Activity (1): antifungal activity of the NP against Fusarium graminearium: + (+ indicates a 1- to 5-fold improvement in activity compared to a reference defensin protein)

## NLCERASKTWTGNCGNTKHCDTQCRSWEGAKHGACHVRNGKHKCFCYFNC (Defensin like) [L6-42]
[1]
  Activity (1): antifungal activity of the NP against Fusarium graminearium: + (+ indicates a 1- to 5-fold improvement in activity compared to a reference defensin protein)

## NLCERASKTWTGNCGNTKHCDNQCRNWEGAKHGACHVRSGKHKCFCYFNC (Defensin like) [L6-20]
[1]
  Activity (1): antifungal activity of the NP against Fusarium graminearium: ++ (++ indicates a >5- to 10-fold improvement)

## NLCERASKTWTGNCGNTKHCDNQCRNWEGAKHGACHVRNGKWKCFCYFNC (Defensin like) [L6-07]
[1]
  Activity (1): antifungal activity of the NP against Fusarium graminearium: +++ (+++ indicates a >10-fold improvement)

## --QKLCEKASKTWTGNCGNTKHCDKQCRSWEKAKHGACHVRNGKWKCFCYFNC (Defensin like) [L7-59]
[2]
  Activity (1): antifungal activity of the NP against Fusarium graminearium: ++ (++ indicates a >5- to 10-fold improvement)

## NLCERASKTWTGNCGNTKHCDNQCRNWEGAKHGACHVRSGKWKCFCYFNC (Defensin like) [L10-79]
[1]
  Activity (1): antifungal activity of the NP against Fusarium graminearium: ++ (++ indicates a >5- to 10-fold improvement)

## NLCERASKTWTGNCGNTKHCDTQCRSWEGAKHGACHKRNGKWKCFCYFNC (Defensin like) [L10-14]
[1]
  Activity (1): antifungal activity of the NP against Fusarium graminearium: ++ (++ indicates a >5- to 10-fold improvement)

## NLCEKASKTWTGNCGNTKHCDNQCRSWEGAKHGACMKRSGKWKCFCYFNC [L10-76]
[1]
  Activity (1): antifungal activity of the NP against Fusarium graminearium: ++ (++ indicates a >5- to 10-fold improvement)

## NLCERASKTWTGNCGNTKHCDNQCRSWEGAKHGACHKRSGKWKCFCYFNC (Defensin like) [L10-77]
[1]
  Activity (1): antifungal activity of the NP against Fusarium graminearium: ++ (++ indicates a >5- to 10-fold improvement)

## NLCERASKTWTGNCGNTKHCDTQCKSWEGAKHGACHVRNGKWKCFCYFNC (Defensin like) [L6-52]
[1]
  Activity (1): antifungal activity of the NP against Fusarium graminearium: + (+ indicates a 1- to 5-fold improvement in activity compared to a reference defensin protein)

## NLCERASKTWTGNCGNTKHCDNQCKSWEGAKHGACHVRNGKWKCFCYFNC (Defensin like) [L10-64]
[1]
  Activity (1): antifungal activity of the NP against Fusarium graminearium: ++ (++ indicates a >5- to 10-fold improvement)

## --QKLCERPSQTWTGHCGNTKHCDTQCKSWEGAKHGACHKRNGKWKCFCYFNC (Defensin like) [L7-44]
[2]
  Activity (1): antifungal activity of the NP against Fusarium graminearium: + (+ indicates a 1- to 5-fold improvement in activity compared to a reference defensin protein)

## NLCERASKTWTGNCGNTKHCDNQCRNWEGAAHGACHKRNGKWKCFCYFNC (Defensin like) [L6-45]
[1]
  Activity (1): antifungal activity of the NP against Fusarium graminearium: ++ (++ indicates a >5- to 10-fold improvement)

## DGVKLCEKPSQTWTGNCGNTKHCDKQCRNWEKAKHGACHKRNGKWKCFCYFNC (Defensin like) [L7-46]
[2]
  Activity (1): antifungal activity of the NP against Fusarium graminearium: + (+ indicates a 1- to 5-fold improvement in activity compared to a reference defensin protein)

## NLCERASKTWTGNCGNTKHCDNQCKNWEGAKHGACHVRNGKHKCFCYFNC (Defensin like) [L6-08]
[1]
  Activity (1): antifungal activity of the NP against Fusarium graminearium: +++ (+++ indicates a >10-fold improvement)

## DGVKLCERASKTWSGHCGNTKHCDKQCKNWEKAKHGACHKRSGKWKCFCYFNC (Defensin like) [L7-219]
[2]
  Activity (1): antifungal activity of the NP against Fusarium graminearium: + (+ indicates a 1- to 5-fold improvement in activity compared to a reference defensin protein)

## ELCERASKTWTGNCGNTKHCDNQCRSWESAAHGACHKRSGKWKCFCYFNC (Defensin like) [L3-87]
[1]
  Activity (1): antifungal activity of the NP against Fusarium graminearium: ++ (++ indicates a >5- to 10-fold improvement)

## DGVKLCERASKTWSGHCGNTKHCDNQCRSWEGAKHGACHVRSGKHKCFCYFNC (Defensin like) [L7-213]
[2]
  Activity (1): antifungal activity of the NP against Fusarium graminearium: ++ (++ indicates a >5- to 10-fold improvement)
